Measurements: US7858738B2, “Synthetic human peptides and pharmaceutical compositions comprising them for the treatment of systemic lupus erythematosus” (Yeda Research and Development Co., Ltd., priority 2001, dated 2010)

Key:
PBL of SLE patients = assay: Proliferative response of PBL of SLE patients to the human 16/6Id mAb; assay type: cell-based; settings: PBL of one SLE patient; FIG. 7; reversed murine peptides as controls
Protocol: (§1) Induction and treatment of experimental SLE. In order to induce experimental SLE, BALB/c mice were immunized with 1-2 μg of the human mAb 16/6Id and boosted 3 weeks later. For the prevention of experimental SLE, mice were given hCDR1 or hCDR3 (mCDR1 or revmCDR1 as control peptide in Example 12) intravenously (i.v.) or s.c. concomitant with the immunization, and were injected weekly thereafter for 5 weeks. Treatment of an established disease started three and a half months following disease induction with the 16/6Id, when clinical manifestations were already observed. In Example 12, mice received 10 weekly injections (i.v. or s.c.) of mCDR1 or revmCDR1 at a dose of 100 μg/mouse. Prevention and treatment of SLE-like disease in (NZB×NZW)F1 mice with the hCDR1 or mCDR1 peptide. For prevention of SLE, mice at the age of 2 months, before disease manifestations are observed, were injected s.c. with hCDR1 (or mCDR1 in Example 12, 250 μg/mouse) once a week for 10 weeks. To treat an established disease, mice at the age of 5-7 months were injected with hCDR1 (in Example 12, mCDR1 s.c., 250 μg/mouse) once a week for 10 weeks. Proliferative Responses. PBL were isolated from heparinized venous blood by Ficoll-Hypaque (Pharmacia) density-gradient centrifugation. All assays were performed, in triplicate, in flat-bottomed microtiter plates (Falcon, Becton Dickinson, Oxmard, Calif., USA) in which 2×10^5 PBL were cultured in enriched RPMI-1640 as described (Dayan et al., 2000). The PBL were exposed to various concentrations (0.1-40 μg/well) of the human anti-DNA 16/6Id mAb with and without the addition of the various CDR-based peptides at a concentration of at least 10-fold excess over that of the 16/6Id. Phytohemagglutinin (PHA; 2 μg/well) was used as a control for culture conditions at each experiment. The cultures were incubated in 7.5% CO2 at 37° C. for 6 days. Eighteen hours before the cells were harvested, [^3H]-thymidine (0.5μ Ci of 5 Ci/mmol) (Nuclear Research Center, Negev, Israel) was added to all cultures. Results are expressed as the mean thymidine incorporation in counts per minute (CPM) of triplicate culture±SD, or as stimulation index (S.I.; the ratio of mean CPM at the optimal concentration of the human 16/6Id to the mean CPM in the presence of medium alone). A S.I.≧2 was considered a positive response (Dayan et al., 2000). Inhibition (the ratio of mean CPM in the presence of the 16/6Id and various CDR-based peptides to the mean CPM with the 16/6Id without the CDR-based peptide) above 50% was considered positive. Induction of Cytokine Production. Mice that were immunized with the human 16/6Id mAb and either treated or not with the CDR-based peptide, were killed at different periods during or after treatment with the peptide. Splenocytes and lymph node cells (LNC) were harvested and incubated (5×10^6/ml) in the presence of the 16/6Id. Supernatants were collected after 48 and 72 h. Assessment of Cytokines in the Supernatants. Supernatants were collected 48 hours following the initiation of the cultures and stored at −70° C. Measurements of IL-2, IL-10, IFN-γ, and TNF-α were performed by ELISA by using the relevant standards, capture and detecting Abs (Pharmingen) according to the manufacturer's instructions. TGF-β was determined by an ELISA. Briefly, plates were coated with the recombinant human TGF-β1 sRIII/Fc chimera (R & D Systems Inc., Minneapolis, Minn., USA), and the second Ab used was the biotinylated anti-human TGF-β1 antibody (R & D Systems Inc.). The substrate solution used was TMB color Reagent (Helix Diagnostics, West Sacramento, Calif.), and enzyme activity was evaluated by using 570- and 630-nm filters. Detection of SLE-Associated Clinical and Pathological Manifestations. Proteinuria was measured semiquantitatively by using Combistix kit (Ames Division, Bayer Diagnostics, Newbury, U.K.). White blood cells (WBC, for leukopenia) were counted after a 10-fold dilution of heparinized blood in distilled water containing 1% acetic acid (vol/vol). […]

(NZB×NZW)F1 mice [1] = assay: Treatment of established SLE-like disease in (NZB×NZW)F1 mice; assay type: in vivo; settings: 300 μg/mouse, age 7 months
Protocol: as §1

BALB/c mice = assay: Treatment of 16/6Id-induced experimental SLE in BALB/c mice; assay type: in vivo; settings: Table 12, 300 μg/mouse weekly
Protocol: as §1

(NZB×NZW)F1 mice [2] = assay: Transfer of splenocytes of peptide-treated mice into (NZB×NZW)F1 mice with full-blown disease; assay type: in vivo; settings: Table 14 (repeat experiment), recipients of 20 × 10^6 spleen cells from treated mice
From the text: It was of importance to investigate whether the beneficial effects of treatment with hCDR1, that are manifested by the down-regulation of disease manifestations, can be transferred by spleen cells of treated mice. To this end, we have performed an experiment in which 8-month old (NZB×NZW)F1 mice, that suffer already from the full-blown lupus-like disease, were divided into 2 groups. Group 1 was not treated and mice of group 2 were transferred with 20×10^6 spleen cells of 3-month old (NZB×NZW)F1 mice that were injected 3 times (s.c., every other day) with 300 μg/mouse of hCDR1. All splenocytes were injected intraperitoneally. Mice were tested for anti-dsDNA autoantibody production, disease manifestations, and were sacrificed 4 weeks after cell transfer.
The experiment was repeated a few more times using revhCDR1 as control.

MMP-9 [3] = assay: MMP-9 activity in sera of 16/6Id immunized BALB/c mice; assay type: in vivo; settings: prevention and treatment protocols, 100 μg/mouse; FIG. 21B
Protocol: (§2) Induction and treatment of experimental SLE. In order to induce experimental SLE, BALB/c mice were immunized with 1-2 μg of the human mAb 16/6Id and boosted 3 weeks later. For the prevention of experimental SLE, mice were given hCDR1 or hCDR3 (mCDR1 or revmCDR1 as control peptide in Example 12) intravenously (i.v.) or s.c. concomitant with the immunization, and were injected weekly thereafter for 5 weeks. Treatment of an established disease started three and a half months following disease induction with the 16/6Id, when clinical manifestations were already observed. In Example 12, mice received 10 weekly injections (i.v. or s.c.) of mCDR1 or revmCDR1 at a dose of 100 μg/mouse. Prevention and treatment of SLE-like disease in (NZB×NZW)F1 mice with the hCDR1 or mCDR1 peptide. For prevention of SLE, mice at the age of 2 months, before disease manifestations are observed, were injected s.c. with hCDR1 (or mCDR1 in Example 12, 250 μg/mouse) once a week for 10 weeks. To treat an established disease, mice at the age of 5-7 months were injected with hCDR1 (in Example 12, mCDR1 s.c., 250 μg/mouse) once a week for 10 weeks. Proliferative Responses. PBL were isolated from heparinized venous blood by Ficoll-Hypaque (Pharmacia) density-gradient centrifugation. […] Results are expressed as the mean thymidine incorporation in counts per minute (CPM) of triplicate culture±SD, or as stimulation index (S.I.; the ratio of mean CPM at the optimal concentration of the human 16/6Id to the mean CPM in the presence of medium alone). […] TGF-β was determined by an ELISA. […] The substrate solution used was TMB color Reagent (Helix Diagnostics, West Sacramento, Calif.), and enzyme activity was evaluated by using 570- and 630-nm filters. […] Proteinuria was measured semiquantitatively by using Combistix kit (Ames Division, Bayer Diagnostics, Newbury, U.K.). White blood cells (WBC, for leukopenia) were counted after a 10-fold dilution of heparinized blood in distilled water containing 1% acetic acid (vol/vol). […]

MMP-9 [4] = assay: MMP-9 activity in sera of (NZB×NZW)F1 mice (gel zymography); assay type: in vivo; settings: treatment of sick mice; FIG. 20B right
Protocol: as §1, with “A S.I.≧2 was considered a positive response (Dayan et al., 2000). Inhibition (the ratio of mean CPM in the presence of the 16/6Id and various CDR-based peptides to the mean CPM with the 16/6Id without the CDR-based peptide) above 50% was considered positive. Induction of Cytokine Production. Mice that were immunized with the human 16/6Id mAb and either treated or not with the CDR-based peptide, were killed at different periods during or after treatment with the peptide. Splenocytes and lymph node cells (LNC) were harvested and incubated (5×10^6/ml) in the presence of the 16/6Id. Supernatants were collected after 48 and 72 h. Assessment of Cytokines in the Supernatants. Supernatants were collected 48 hours following the initiation of the cultures and stored at −70° C. Measurements of IL-2, IL-10, IFN-γ, and TNF-α were performed by ELISA by using the relevant standards, capture and detecting Abs (Pharmingen) according to the manufacturer's instructions.” left out, “Briefly, plates were coated with the recombinant human TGF-β1 sRIII/Fc chimera (R & D Systems Inc., Minneapolis, Minn., USA), and the second Ab used was the biotinylated anti-human TGF-β1 antibody (R & D Systems Inc.).” left out, “Detection of SLE-Associated Clinical and Pathological Manifestations.” left out

MMP-3 = MMP-3 levels in sera of 16/6Id immunized BALB/c mice (Western blot); assay type: in vivo; settings: prevention and treatment protocols, 100 μg/mouse; FIG. 21A
Protocol: as §2, with “peptide.” for “peptide. For prevention of SLE, mice at the age of 2 months, before disease manifestations are observed, were injected s.c. with hCDR1 (or mCDR1 in Example 12, 250 μg/mouse) once a week for 10 weeks. To treat an established disease, mice at the age of 5-7 months were injected with hCDR1 (in Example 12, mCDR1 s.c., 250 μg/mouse) once a week for 10 weeks. Proliferative Responses. PBL were isolated from heparinized venous blood by Ficoll-Hypaque (Pharmacia) density-gradient centrifugation.”, “U.K.).” for “U.K.). White blood cells (WBC, for leukopenia) were counted after a 10-fold dilution of heparinized blood in distilled water containing 1% acetic acid (vol/vol).”

Sequence | inhibition of the proliferative responses of PBL to human 16/6Id mAb (PBL of SLE patients) | Proteinuria g/L ± SEM ((NZB×NZW)F1 mice [1]; following treatment No 5, untreated 2.65 ± 1.76) [g/L] | Proteinuria g/L ± SEM ((NZB×NZW)F1 mice [1]; following treatment No 7, untreated 3.89 ± 2.73) [g/L] | Proteinuria g/L ± SEM ((NZB×NZW)F1 mice [1]; following treatment No 9, untreated 7.55 ± 3.95) [g/L] | Anti-dsDNA antibodies 1:1250, Mean ± SD (BALB/c mice; 16/6Id alone 0.47 ± 0.3) | Proteinuria g/l, Mean ± SD (BALB/c mice; 16/6Id alone 0.58 ± 0.34) [g/L] | Anti-16/6 Id antibodies 1:10000, Mean ± SD (BALB/c mice; 16/6Id alone 0.89 ± 0.1) | Intensity of ICD in kidneys, Mean ± SD (BALB/c mice; 16/6Id alone 1.6 ± 0.55) | WBC/mm^3, Mean ± SD (BALB/c mice; 16/6Id alone 2800 ± 300) | I.C.D ± SEM ((NZB×NZW)F1 mice [2]; non-treated 2.3 ± 0.26) | Proteinuria g/L ± SEM ((NZB×NZW)F1 mice [2]; non-treated 10.9 ± 3.05) [g/L] | MMP-9 activity in sera (MMP-9 [3]) | activity of MMP-9 in the sera (MMP-9 [4]) | levels of MMP-3 in sera (MMP-3)
SGQGWYDMAYPEWLFRACYY (Synthetic peptide prepared in reversed order of SEQ ID NO 3.) [revmCDR3, control peptide synthesized in the reversed order of mCDR3, reference compound] | failed to inhibit significantly | – | – | – | – | – | – | – | – | – | – | – | – | –
GIWEEGKGPPQRIWSWYYG (Synthetic peptide prepared in the reversed order of SEQ ID NO 6.) [revhCDR1, control peptide synthesized in the reversed order of hCDR1, reference compound] | – | 6.94 ± 2.53 | 6.76 ± 2.91 | 5.99 ± 3.08 | 0.35 ± 0.3 | 0.8 ± 0.3 | 0.95 ± 0.13 | 0.85 ± 0.75 | 4180 ± 831 /mm^3 | 1.7 ± 0.23 | 5.38 ± 2.34 | – | – | –
GIWELSKEPSQKVWQMYYGT (Synthetic peptide prepared in the reversed order of SEQ ID NO 1.) [revmCDR1, control peptide synthesized in the reversed order of mCDR1] | failed to inhibit significantly | – | – | – | – | – | – | – | – | – | – | did not affect | not | did not affect
